Source: US20230056205A1, “SUBSTITUTED 4,6-DIHYDROSPIRO[[1,2,3]TRIAZOLO[4,5-B]PYRIDINE-7,3'-INDOLINE]-2',5(3H)-DIONE ANALOGUES” (The Board of Regents of The University of Texas System, priority 2019, published 2023)
Entries after “also recorded” stand apart in the source; their conditions may differ.

What was measured:
DENV-1 replicon = test: Luciferase reporter replicon-based screening, DENV-1; format: cell-based, DENV-1 (strain WestPac); conditions: for EC50: Dengue virus, DENV1, Huh-7, 48 h, read-out: EC50 DENV-1
Method in brief: (§1)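 Huh7 cells carrying Renilla luciferase/neo replicons of DENV-1 (WestPac), DENV-2 (NGC), DENV-3 (D3MY05-34640) or DENV-4 (D4MY01-22713), treated with 2-fold compound dilutions for 48 h at 37 °C in duplicate. Live-cell luciferase read; EC50 by four-parameter logistic fit.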

DENV-2 replicon = test: Luciferase reporter replicon-based screening, DENV-2; format: cell-based, DENV-2 (New Guinea C strain, NGC); conditions: for EC50: Dengue virus, DENV2, Huh-7, 48 h, read-out: EC50 DENV-2, Huh7 cells stably expressing DENV-2 replicon, 48 h
Method in brief: as §1

DENV-3 replicon = test: Luciferase reporter replicon-based screening, DENV-3; format: cell-based, DENV-3 (strain D3MY05-34640); conditions: for EC50: Dengue virus, DENV3, Huh-7, 48 h, read-out: EC50 DENV-3, Huh7 cells stably expressing DENV-3 replicon, 48 h
Method in brief: as §1

DENV-4 replicon = test: Luciferase reporter replicon-based screening, DENV-4; format: cell-based, DENV-4 (strain D4MY01-22713); conditions: for EC50: Dengue virus, DENV4, Huh-7, 48 h, read-out: EC50 DENV-4
Method in brief: as §1

[1] = Cytotoxicity assay (CellTiter-Glo); format: cell-based; conditions: human, Huh7 cells stably expressing DENV-2 replicon
Method in brief: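 Huh7 or Huh7 replicon cells, seeded overnight at 37 °C, exposed to 2-fold serial dilutions of compound for 48 h in duplicate. Viability by CellTiter-Glo, normalised to 0.45% DMSO wells (100%); CC50 by four-parameter logistic regression.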

[2] = system: P12 resistant DENV-2 viruses (NS4B V63M or V63L); format: cell-based, DENV-2 strain NGC; conditions: after twelve rounds of selection with compound 63, selections III to VI, Huh7 cells
[3] = molecular target: T1, DENV-2 viral NS4B protein (Dengue virus type 2, UniProt P14340); test: Pull-down assay with biotinylated compounds; format: binding, DENV-2 strain NGC; conditions: lysates of DENV-2 infected Huh7 cells, streptavidin beads, Western blot
T1 construct: endogenous in cells; host or cells: Huh7 cells infected with DENV-2 strain NGC (virus-encoded protein in the lysate)
Procedure: Pull-Down Assay. 4 × 10^6 Huh7 cells were seeded in a T-75 flask. The next day, cells were infected with DENV-2 strain NGC at a MOI of 2.0 in the presence of 10 µM compound 73 or 75. Cells treated with 0.25% DMSO were used as a control. After 48 h-incubation at 37° C., cells were harvested and lysed in 500 µL lysis buffer comprising 20 mM Tris-HCL pH 7.5, 100 mM NaCl, 0.5% DDM, and EDTA-free protease inhibitor cocktail (Roche). After removing the cell debris by centrifugation at 15000 rpm for 10 min, the lysates were mixed with corresponding compound at a final concentration of 100 µM or DMSO (0.25%) prior to incubation with 80 µL Streptavidin Magnetic Beads (ThermoFisher Scientific). After incubation at 4° C. overnight with agitation, the beads were washed 5 times with PBST buffer (PBS containing 0.1% Tween 20). The beads were finally mixed with 1 × LDS sample buffer (ThermoFisher Scientific) containing 100 mM dithiothreitol (DTT, Sigma-Aldrich) and heated at 95° C. for 10 minutes to elute the bead-associated proteins. The eluates and cell lysates were loaded onto a 12% SDS-PAGE and viral NS4B proteins were detected by a mouse monoclonal antibody according to the protocol as reported previously.^56

[4] = at the concentration up to 10 µM (data not shown)

Row | Structure (SMILES) | EC50 (DENV-1 replicon) [nM] | EC50 (DENV-2 replicon) [nM] | EC50 (DENV-3 replicon) [nM] | EC50 (DENV-4 replicon) [nM] | CC50 at 48 h [1] [nM] | increase of EC50 of resistant viruses (resistance fold vs P0 DENV-2) [2] [folds] | activity against DENV-1 (DENV-1 replicon; [4]) | activity against DENV-4 (DENV-4 replicon; [4]) | pull down of / association with viral NS4B protein [3] | remains active against DENV-2 (DENV-2 replicon; FIG. 1B) | remains active against DENV-3 (DENV-3 replicon; FIG. 1B)
1 | C[C@@H](c1ccc(Cl)cc1)n1nnc2c1NC(=O)C[C@]21C(=O)N(CCCN(C)C)c2ccc(Cl)cc21 [Compound 63, (R)-5'-Chloro-3-((S)-1-(4-chlorophenyl)ethyl)-1'-(3-(dimethylamino)propyl)-4,6-dihydrospiro[[1,2,3]triazolo[4,5-b]pyridine-7,3'-indoline]-2',5(3H)-dione] | > 5000 | 25 | 1 | > 5000 | > 10000 | > 100 |  |  |  |  | 
2 | C[C@@H](c1ccc(Cl)cc1)n1nnc2c1NC(=O)C[C@]21C(=O)N(CCCN2CCCCC2)c2ccc(Cl)cc21 [Compound 64, (R)-5'-Chloro-3-((S)-1-(4-chlorophenyl)ethyl)-1'-(3-(piperidin-1-yl)propyl)-4,6-dihydrospiro[[1,2,3]triazolo[4,5-b]pyridine-7,3'-indoline]-2',5(3H)-dione] | > 5000 | 130 | 12 | > 5000 | > 10000 |  |  |  |  |  | 
3 | C[C@@H](c1ccc(Cl)cc1)n1nnc2c1NC(=O)C[C@]21C(=O)N(CCCN2CCOCC2)c2ccc(Cl)cc21 [Compound 65, (R)-5'-Chloro-3-((S)-1-(4-chlorophenyl)ethyl)-1'-(3-morpholinopropyl)-4,6-dihydrospiro[[1,2,3]triazolo[4,5-b]pyridine-7,3'-indoline]-2',5(3H)-dione] | > 5000 | 76 | 5 | > 5000 | > 10000 |  |  |  |  |  | 
4 | C[C@@H](c1ccc(Cl)cc1)n1nnc2c1NC(=O)C[C@]21C(=O)N(CCCCN(C)C)c2ccc(Cl)cc21 [Compound 66, (R)-5'-Chloro-3-((S)-1-(4-chlorophenyl)ethyl)-1'-(4-(dimethylamino)butyl)-4,6-dihydrospiro[[1,2,3]triazolo[4,5-b]pyridine-7,3'-indoline]-2',5(3H)-dione] | > 5000 | 190 | 38 | > 5000 | > 10000 |  |  |  |  |  | 
5 | C[C@@H](c1ccc(Cl)cc1)n1nnc2c1NC(=O)C[C@]21C(=O)N(CCCCN2CCCCC2)c2ccc(Cl)cc21 [Compound 67, (R)-5'-Chloro-3-((S)-1-(4-chlorophenyl)ethyl)-1'-(4-(piperidin-1-yl)butyl)-4,6-dihydrospiro[[1,2,3]triazolo[4,5-b]pyridine-7,3'-indoline]-2',5(3H)-dione] | > 5000 | 350 | 78 | > 5000 | > 10000 |  |  |  |  |  | 
6 | C[C@@H](c1ccc(Cl)cc1)n1nnc2c1NC(=O)C[C@]21C(=O)N(CCCCCCN(C)C)c2ccc(Cl)cc21 [Compound 68, (R)-5'-Chloro-3-((S)-1-(4-chlorophenyl)ethyl)-1'-(6-(dimethylamino)hexyl)-4,6-dihydrospiro[[1,2,3]triazolo[4,5-b]pyridine-7,3'indoline]-2',5(3H)-dione] | 1500 | 900 | 66 | > 5000 | > 10000 |  |  |  |  |  | 
7 | C[C@@H](c1ccc(Cl)cc1)n1nnc2c1NC(=O)C[C@]21C(=O)N(CCCCCCCCN(C)C)c2ccc(Cl)cc21 [Compound 69, (R)-5'-Chloro-3-((S)-1-(4-chlorophenyl)ethyl)-1'-(8-(dimethylamino)octyl)-4,6-dihydrospiro[[1,2,3]triazolo[4,5-b]pyridine-7,3'-indoline]-2',5(3H)-dione] | > 5000 | 490 | 42 | > 5000 | > 10000 |  |  |  |  |  | 
8 | C[C@@H](c1ccc(Cl)cc1)n1nnc2c1NC(=O)C[C@]21C(=O)N(CCCCCCCCCCN(C)C)c2ccc(Cl)cc21 [Compound 70, (R)-5'-Chloro-3-((S)-1-(4-chlorophenyl)ethyl)-1'-(10-(dimethylamino)decyl)-4,6-dihydrospiro[[1,2,3]triazolo[4,5-b]pyridine-7,3'indoline]-2',5(3H)-dione] | 2700 | 3500 | 98 | 3500 | > 10000 |  |  |  |  |  | 
9 | C[C@@H](c1ccc(Cl)cc1)n1nnc2c1NC(=O)C[C@]21C(=O)N(CCOC(=O)CCCCCCCNC(=O)CCCC[C@@H]2SC[C@@H]3NC(=O)N[C@@H]32)c2ccc(Cl)cc21 [Compound 73, 2-((R)-5'-Chloro-3-((S)-1-(4-chlorophenyl)ethyl)-2',5-dioxo-3,4,5,6-tetrahydrospiro[[1,2,3]triazolo[4,5-b]pyridine-7,3'-indolin]-1'-yl)ethyl 8-(5-((3aS,4S,6aR)-2-oxohexahydro-1H-thieno[3,4-d]imidazol-4-yl)pentanamido)octanoate] |  | 41 | 17 |  |  |  | no significant activity | no significant activity | can pull down viral NS4B protein; also recorded: associated with DENV-2 viral NS4B protein |  | 
10 | C[C@@H](c1ccc(Cl)cc1)n1nnc2c1NC(=O)C[C@@]21C(=O)N(CCOC(=O)CCCCCCCNC(=O)CCCC[C@@H]2SC[C@@H]3NC(=O)N[C@@H]32)c2ccc(Cl)cc21 [Compound 75, 2-((S)-5'-Chloro-3-((S)-1-(4-chlorophenyl)ethyl)-2',5-dioxo-3,4,5,6-tetrahydrospiro[[1,2,3]triazolo[4,5-b]pyridine-7,3'-indolin]-1'-yl)ethyl 8-(5-((3aS,4S,6aR)-2-oxohexahydro-1H-thieno[3,4-d]imidazol-4-yl)pentanamido)octanoate] |  |  |  |  |  |  |  |  | not | not | not
